Converted amounts (≈) assume the structure as drawn.

A short description of data set [1]: Solubility of compound at pH 8. In kind it is physicochemical. As to conditions: buffer.
Data set [2] can be described thus: Half life in iv dosed rat. It counts as ADME, organism-based. As to conditions: in vivo.
A short description of data set [3]: Volume of distribution at steady state in iv dosed rat. As to conditions: in vivo, read-out: Vdss. It counts as ADME, organism-based.
Data set [4] is described as follows: Cmax in iv dosed rat. In kind it is ADME, organism-based. As to conditions: in vivo.
A short description of data set [5]: AUC in iv dosed rat. It counts as ADME, organism-based. As to conditions: in vivo.
Data set [6] can be described thus: Tmax in iv dosed rat. As to conditions: in vivo. In kind it is ADME, organism-based.

Description for Plasma: Anticoagulation activity in plasma (unknown origin) assessed as concentration required for twice the activated partial thromboplastin time

In turn, `CN(Cc1cc(=O)[nH]c2ccc(Cl)cc12)C(=O)[C@H](Cc1ccc(NC(=O)C2CCC2)cc1)NC(=O)c1ccc(C(=O)O)s1` came in with a 2aPTT with Plasma of 13.3 µM.
Same read-out and setting: next, `CN(Cc1cc(=O)[nH]c2ccc(Cl)cc12)C(=O)[C@H](Cc1ccc(NC(=O)C2CC2)cc1)NC(=O)c1ccc(C(=O)O)s1`: 6.9 µM.
For the molecule `COC(=O)Nc1ccc(C(=O)N[C@@H](Cc2ccccc2)C(=O)N(C)Cc2cc(=O)[nH]c3ccc(Cl)cc23)cc1`, in data set [1] (read-out: solubility), the solubility was 17.3 µg/mL (≈ 31.6 µM). In the data set with Plasma, this molecule showed a 2aPTT of 16.7 µM.
For the molecule `CC[C@@H](C(=O)Nc1ccc(C(N)=O)c(F)c1)n1cc(OC)c(-c2cc(Cl)ccc2-n2cc(C(F)(F)F)nn2)cc1=O`, the 2aPTT in the data set with Plasma came to 3.8 µM.
The same measure, in the same setting: next, `CN(Cc1cc(=O)[nH]c2ccc(Cl)cc12)C(=O)[C@H](Cc1ccc(NC(=O)C2CCCC2)cc1)NC(=O)c1ccc(C(=O)O)s1`: 11.2 µM; `CN(Cc1cc(=O)[nH]c2ccc(Cl)cc12)C(=O)[C@H](Cc1ccc(NC(=O)C2CC2(C)C)cc1)NC(=O)c1ccc(C(=O)O)s1` (stereo not given in full): 9.8 µM; `CN(Cc1cc(=O)[nH]c2ccc(Cl)cc12)C(=O)[C@H](Cc1ccc(NC(=O)C2CCCCC2)cc1)NC(=O)c1ccc(C(=O)O)s1`: 14 µM.
In data set [2], `CC1CC1C(=O)Nc1ccc(C[C@H](NC(=O)c2ccc(C(=O)O)s2)C(=O)N(C)Cc2cc(=O)[nH]c3ccc(Cl)cc23)cc1` (stereo not given in full) gave a half-life of 48.6 min. The Vd in data set [3] was found to be 40 L/kg. In data set [4], this molecule had a Cmax of 2120 ng/mL. In data set [1], the solubility entry is “Soluble”. Besides, in data set [5], the AUC came out at 313 ng·h/mL. The 2aPTT in the data set on Plasma amounted to 6.8 µM. Further, the Tmax in data set [6] is 1.2 min.

(Values after ChEMBL document CHEMBL5608162, “Design, synthesis and biological evaluation of 6-chloro-quinolin-2-one derivatives as novel FXIa inhibitors” (Bioorg Med Chem Lett, 2024).)
